From patent US7855166B2, “Sulfonylamino(thio)carbonyl compounds” (Bayer Cropscience GmbH, priority 2005, dated 2010)

Experiments:
[1] = test system: weed plants such as Sinapis alba, Chrysanthemum segetum, Avena sativa, Stellaria media, Echinochloa crus-galli, Lolium multiflorum, Setaria viridis, Abutilon …; assay: Pre-emergence effect on weeds (greenhouse pot test, visual scoring); assay type: in vivo; settings: applied pre-emergence at a rate of 0.3 kg or less of active substance per hectare; scored after 3 to 4 weeks in comparison to untreated controls
[2] = test system: weed plants such as Sinapis alba, Echinochloa crus-galli, Lolium multiflorum, Chrysanthemum segetum, Setaria viridis, Abutilon theophrasti, Amaranthus …; assay: Post-emergence effect on weeds (greenhouse pot test, visual scoring); assay type: in vivo; settings: applied post-emergence (three-leaf stage) at a rate of 0.3 kg or less of active substance per hectare; scored after about 3 to 4 weeks in comparison to untreated controls

Compound	herbicidal action against weed plants (visual scoring of plant damage or emergence damage) [1]	herbicidal action against weed plants (effect scored visually) [2]
COc1nn(C(=O)NS(=O)(=O)c2c(I)cccc2SC)c(=O)n1C [Compound 1.579]	very good herbidical action	very good herbicidal action
CCCOc1nn(C(=O)NS(=O)(=O)c2c(I)cccc2SC)c(=O)n1C [Compound 1.581]	very good herbidical action	very good herbicidal action
CSc1cccc(I)c1S(=O)(=O)NC(=O)n1nc(OC(C)C)n(C)c1=O [Compound 1.582]	very good herbidical action	very good herbicidal action
COc1nn(C(=O)NS(=O)(=O)c2c(I)cccc2SC)c(=O)n1C1CC1 [Compound 1.584]	very good herbidical action	very good herbicidal action
CCOc1nn(C(=O)NS(=O)(=O)c2c(I)cccc2SC)c(=O)n1C1CC1 [Compound 1.585]	very good herbidical action	very good herbicidal action
CCCOc1nn(C(=O)NS(=O)(=O)c2c(I)cccc2SC)c(=O)n1C1CC1 [Compound 1.586]	very good herbidical action	very good herbicidal action
COc1nn(C(=O)NS(=O)(=O)c2c(I)cccc2OS(C)(=O)=O)c(=O)n1C [Compound 1.711]	very good herbidical action	very good herbicidal action
CCOc1nn(C(=O)NS(=O)(=O)c2c(I)cccc2OS(C)(=O)=O)c(=O)n1C [Compound 1.712]	very good herbidical action	very good herbicidal action
CCCOc1nn(C(=O)NS(=O)(=O)c2c(I)cccc2OS(C)(=O)=O)c(=O)n1C [Compound 1.713]	very good herbidical action	very good herbicidal action
COc1nn(C(=O)NS(=O)(=O)c2c(I)cccc2OS(C)(=O)=O)c(=O)n1C1CC1 [Compound 1.716]	very good herbidical action	very good herbicidal action
CCOc1nn(C(=O)NS(=O)(=O)c2c(I)cccc2OS(C)(=O)=O)c(=O)n1C1CC1 [Compound 1.717]	very good herbidical action	very good herbicidal action
CCCOc1nn(C(=O)NS(=O)(=O)c2c(I)cccc2OS(C)(=O)=O)c(=O)n1C1CC1 [Compound 1.718]	very good herbidical action	very good herbicidal action
COc1nn(C(=O)NS(=O)(=O)c2c(I)cccc2OS(=O)(=O)N(C)C)c(=O)n1C [Compound 1.749]	very good herbidical action	very good herbicidal action
CCCOc1nn(C(=O)NS(=O)(=O)c2c(I)cccc2OS(=O)(=O)N(C)C)c(=O)n1C [Compound 1.751]	very good herbidical action	very good herbicidal action
CC(C)Oc1nn(C(=O)NS(=O)(=O)c2c(I)cccc2OS(=O)(=O)N(C)C)c(=O)n1C [Compound 1.752]	very good herbidical action	very good herbicidal action
COc1nn(C(=O)NS(=O)(=O)c2c(I)cccc2OS(=O)(=O)N(C)C)c(=O)n1C1CC1 [Compound 1.754]	very good herbidical action	very good herbicidal action
CCOc1nn(C(=O)NS(=O)(=O)c2c(I)cccc2OS(=O)(=O)N(C)C)c(=O)n1C1CC1 [Compound 1.755]	very good herbidical action	very good herbicidal action
CCCOc1nn(C(=O)NS(=O)(=O)c2c(I)cccc2OS(=O)(=O)N(C)C)c(=O)n1C1CC1 [Compound 1.756]	very good herbidical action	very good herbicidal action

Compound	herbicidal action against weed plants (visual scoring of plant damage or emergence damage) [1]	herbicidal action against weed plants (effect scored visually) [2]
Cc1cccc(I)c1S(=O)(=O)NC(=O)n1nc(C2CC2)n(C2CC2)c1=O [Compound 1.815]	very good herbidical action	very good herbicidal action
COc1ccc(Cl)c(I)c1S(=O)(=O)NC(=O)n1nc(OC)n(C)c1=O [Compound 1.816]	very good herbidical action	very good herbicidal action
CCOc1nn(C(=O)NS(=O)(=O)c2c(OC)ccc(Cl)c2I)c(=O)n1C [Compound 1.817]	very good herbidical action	very good herbicidal action
CCCOc1nn(C(=O)NS(=O)(=O)c2c(OC)ccc(Cl)c2I)c(=O)n1C [Compound 1.818]	very good herbidical action	very good herbicidal action
COc1ccc(Cl)c(I)c1S(=O)(=O)NC(=O)n1nc(OC(C)C)n(C)c1=O [Compound 1.819]	very good herbidical action	very good herbicidal action
COc1ccc(Cl)c(I)c1S(=O)(=O)NC(=O)n1nc(OC)n(C2CC2)c1=O [Compound 1.820]	very good herbidical action	very good herbicidal action
CCCOc1nn(C(=O)NS(=O)(=O)c2c(OC)ccc(Cl)c2I)c(=O)n1C1CC1 [Compound 1.822]	very good herbidical action	very good herbicidal action
COc1nn(C(=O)NS(=O)(=O)c2ccc(F)cc2I)c(=O)n1C [Compound 1.823]	very good herbidical action	very good herbicidal action
CCCOc1nn(C(=O)NS(=O)(=O)c2ccc(F)cc2I)c(=O)n1C [Compound 1.824]	very good herbidical action	very good herbicidal action
COc1nn(C(=O)NS(=O)(=O)c2ccc(F)cc2I)c(=O)n1C1CC1 [Compound 1.825]	very good herbidical action	very good herbicidal action
CCCOc1nn(C(=O)NS(=O)(=O)c2ccc(F)cc2I)c(=O)n1C1CC1 [Compound 1.827]	very good herbidical action	very good herbicidal action
COc1nn(C(=O)NS(=O)(=O)c2cccc(Cl)c2I)c(=O)n1C [Compound 1.828]	very good herbidical action	very good herbicidal action
CCOc1nn(C(=O)NS(=O)(=O)c2cccc(Cl)c2I)c(=O)n1C [Compound 1.829]	very good herbidical action	very good herbicidal action
CCCOc1nn(C(=O)NS(=O)(=O)c2cccc(Cl)c2I)c(=O)n1C [Compound 1.830]	very good herbidical action	very good herbicidal action
CC(C)Oc1nn(C(=O)NS(=O)(=O)c2cccc(Cl)c2I)c(=O)n1C [Compound 1.831]	very good herbidical action	very good herbicidal action
COc1nn(C(=O)NS(=O)(=O)c2cccc(Cl)c2I)c(=O)n1C1CC1 [Compound 1.832]	very good herbidical action	very good herbicidal action
CCOc1nn(C(=O)NS(=O)(=O)c2cccc(Cl)c2I)c(=O)n1C1CC1 [Compound 1.833]	very good herbidical action	very good herbicidal action
